In brackets after ≈: the same amount, converted by molar mass.
Legend:
[1] = test system: Bacillus subtilis No. 10707; assay: Anti-bacterial activity, MIC by agar dilution method; assay type: cell-based; settings: pH 7.0, read-out: minimum inhibitory concentration (MIC)
Description: (§1) The following Table 1 indicates minimum inhibitory concentration (MIC) of DC114-C against selected microorganisms, measured by the agar dilution method at pH 7.0.

[2] = test system: Enterococcus faecium ATCC 10541; assay: as above; assay type: cell-based; settings: ATCC10541, pH 7.0, read-out: minimum inhibitory concentration (MIC)
Description: as §1

[3] = test system: Klebsiella pneumoniae ATCC 10031; assay: as above; assay type: cell-based; settings: ATCC10031, pH 7.0, read-out: minimum inhibitory concentration (MIC)
Description: as §1

[4] = test system: Salmonella typhi ATCC 9992; assay: as above; assay type: cell-based; settings: Salmonella enterica, pH 7.0, read-out: minimum inhibitory concentration (MIC)
Description: as §1

[5] = test system: Staphylococcus aureus ATCC 6538P; assay: as above; assay type: cell-based; settings: ATCC6538P, pH 7.0, read-out: minimum inhibitory concentration (MIC)
Description: as §1

Balb 3T3/H-ras cells = assay: Growth inhibition against Balb 3T3/H-ras cells (neutral red); assay type: cell-based; settings: Mus musculus, BALB/3T3, read-out: IC50 (concentration required for 50% inhibition of the growth of the cells); 72 hours, 37° C.
Protocol: Into each well of a 96 well microtitre plate was poured a Balb 3T3/H-ras cell suspension (each 0.1 ml), containing 2×10^4 cell/ml and prepared by suspending the cells in medium A. Medium A was prepared by adding to F10 medium (commercial product of Gibco) fetal calf serum (0.1 g/ml), penicillin (100 Unit/ml) and streptomycin (100 μg/ml).
On each occasion, the plate was incubated at a temperature of 37° C. for 20 hours in a carbon dioxide incubator. Then a test sample of DC114-C was suitably diluted with medium A. The diluted sample (0.05 ml) was added to each well, followed by incubation at a temperature of 37° C. for 72 hours in the incubator. After this, the supernatant was removed from the medium. Another medium (each 0.1 ml), prepared by adding to medium A neutral red (0.02%), was added to each well. The cells were dyed by incubation at a temperature of 37° C. for one hour in the incubator.
The supernatant was removed and the residue was washed once with physiological saline. After removal of the dyestuff by using a mixture of 0.001N hydrochloric acid and 30% ethanol, a micro-plate reader was applied to the material to measure the absorbance at 550 nm. The following Table 2 indicates the results obtained by comparing the absorbance of untreated cells with the absorbance of the test sample measured at various concentrations.

Sarcoma 180 tumour cells = assay: Curing effect on Sarcoma 180 tumour cells; assay type: in vivo, female mice of ddy strain; settings: i.v., 5 times at 24 h intervals, 10 days after inoculation
Protocol: As test animals, female mice of ddy strain (body weight about 20 g; each group consisting of 6 mice) were used. 5×10^6 Sarcoma 180 tumour cells were, on each occasion, inoculated into the animal under the skin of the armpit. From the first to 5th days after this, a dose of phosphate-buffered physiological saline (PBS; 0.2 ml) containing a given concentration of DC114-C as shown in Table 3 was intravenously given to the test animal. The administration was effected 5 times with an interval of 24 hours between each. […] 10 days after inoculation, T/C values viz. the ratio of the average volume (mm^3) of the tumours found on the animals treated with the test compounds to the corresponding volume found on the untreated animals were measured and these are shown in the following Table 3.

in vivo = settings: mouse, iv
[6] = Solubility in various solvents

`Cc1cc2c(O)c3c(cc2c2oc(C4(C)OC4C4CO4)cc(=O)c12)C(=O)C1OC1(C1CC(=O)C(O)C(C)O1)C3O` (stereo not shown) [DC114-C] gave an MIC [1] of 0.26 µg/mL (≈ 0.472 µM), an MIC [2] of 0.13 µg/mL (≈ 0.236 µM) and an MIC [3] of 4.2 µg/mL (≈ 7.63 µM). For the same compound, the MIC [4] was 8.3 µg/mL (≈ 15.1 µM), the MIC [5] was 0.07 µg/mL (≈ 0.127 µM) and the IC50 (Balb 3T3/H-ras cells) was 0.06 µg/mL (≈ 0.109 µM). For the same compound, the “T/C (ratio of average tumour volume, treated to untreated)” value (Sarcoma 180 tumour cells; 0.78 mg/kg each) was 0.56, the “T/C (ratio of average tumour volume, treated to untreated)” value (Sarcoma 180 tumour cells; 1.56 mg/kg each) was 0.48 and the “T/C (ratio of average tumour volume, treated to untreated)” value (Sarcoma 180 tumour cells; 3.13 mg/kg each) was 0.26. For the same compound, the “T/C (ratio of average tumour volume, treated to untreated)” value (Sarcoma 180 tumour cells; 6.25 mg/kg each) was 0.15, the LD50 (in vivo) was 17.6 mg/kg and the “Solubility in chloroform, dimethylsulfoxide (DMSO), methanol, ethyl acetate and acetone” value ([6]; chloroform, DMSO, methanol, ethyl acetate, acetone) was “Readily soluble”. The “Solubility in water and n-hexane” value ([6]; water, n-hexane) was “Hardly soluble”.

From patent US5082857A, “Chemical compound” (Kyowa Hakko Kogyo Kabushiki Kaisha, priority 1989, dated 1992)
